Source: US10954219B2, “1,3-benzodioxole derivative” (DAIICHI SANKYO COMPANY, LIMITED, priority 2014, dated 2021)

Experiments:
PRC2-EZH2 (WT EZH2) = biological target: T1, PRC2-EZH2 (WT EZH2) (Homo sapiens, UniProt Q15910); assay: EZH2 methyltransferase inhibitory activity evaluation; format: biochemical; conditions: PRC2-EZH2, biotin-H3 peptide, 3H-SAM, 2 hours
T1 construct: made in house

[1] = test system: Intracellular H3K27me3 in HCT116 cells; assay: Intracellular H3K27me3 inhibitory activity evaluation; format: cell-based; conditions: Homo sapiens, HCT-116, 72 h, 3 days, AlphaLISA, read-out: Test Example 3 H3K27me3 inhibition (HCT116) IC50
PRC2-EZH1 (WT EZH1) = PRC2-EZH1 (WT EZH1) (Homo sapiens, UniProt Q92800); assay: EZH1 methyltransferase inhibitory activity evaluation
Sequence of PRC2-EZH1 (WT EZH1) (Q92800 whole entry): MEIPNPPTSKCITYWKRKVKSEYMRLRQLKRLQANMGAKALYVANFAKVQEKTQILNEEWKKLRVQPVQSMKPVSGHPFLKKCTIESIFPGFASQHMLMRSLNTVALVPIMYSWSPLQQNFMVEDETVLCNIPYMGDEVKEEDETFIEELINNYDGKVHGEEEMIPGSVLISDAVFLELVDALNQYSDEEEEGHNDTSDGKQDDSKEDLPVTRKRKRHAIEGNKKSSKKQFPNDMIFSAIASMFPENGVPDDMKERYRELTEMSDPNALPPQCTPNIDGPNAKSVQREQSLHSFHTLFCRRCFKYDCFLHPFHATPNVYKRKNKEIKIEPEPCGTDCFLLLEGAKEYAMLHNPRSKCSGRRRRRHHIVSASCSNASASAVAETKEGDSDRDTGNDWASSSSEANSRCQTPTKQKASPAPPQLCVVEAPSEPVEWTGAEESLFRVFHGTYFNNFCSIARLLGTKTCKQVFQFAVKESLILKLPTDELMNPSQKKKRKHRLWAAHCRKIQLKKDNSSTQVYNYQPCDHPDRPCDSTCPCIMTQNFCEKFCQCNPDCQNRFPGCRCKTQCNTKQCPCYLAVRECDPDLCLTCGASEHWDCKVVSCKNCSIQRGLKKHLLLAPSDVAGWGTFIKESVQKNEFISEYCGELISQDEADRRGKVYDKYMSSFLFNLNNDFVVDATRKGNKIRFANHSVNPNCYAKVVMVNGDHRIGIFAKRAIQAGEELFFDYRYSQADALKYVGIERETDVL
Sequence of PRC2-EZH1 (WT EZH1) (O75530 whole entry partner): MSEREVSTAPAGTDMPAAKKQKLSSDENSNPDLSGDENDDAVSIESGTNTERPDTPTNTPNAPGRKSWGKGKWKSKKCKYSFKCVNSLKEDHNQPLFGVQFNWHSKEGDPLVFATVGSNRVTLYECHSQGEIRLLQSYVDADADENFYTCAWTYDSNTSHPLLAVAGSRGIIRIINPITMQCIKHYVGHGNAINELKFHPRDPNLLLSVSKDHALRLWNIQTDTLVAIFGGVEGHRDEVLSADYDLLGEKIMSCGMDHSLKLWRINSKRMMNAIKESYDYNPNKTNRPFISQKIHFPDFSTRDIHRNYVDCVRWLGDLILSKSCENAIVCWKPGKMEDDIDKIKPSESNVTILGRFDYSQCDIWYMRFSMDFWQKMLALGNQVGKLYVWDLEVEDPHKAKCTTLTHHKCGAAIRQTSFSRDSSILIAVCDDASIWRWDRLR
Sequence of PRC2-EZH1 (WT EZH1) (Q15022 whole entry partner): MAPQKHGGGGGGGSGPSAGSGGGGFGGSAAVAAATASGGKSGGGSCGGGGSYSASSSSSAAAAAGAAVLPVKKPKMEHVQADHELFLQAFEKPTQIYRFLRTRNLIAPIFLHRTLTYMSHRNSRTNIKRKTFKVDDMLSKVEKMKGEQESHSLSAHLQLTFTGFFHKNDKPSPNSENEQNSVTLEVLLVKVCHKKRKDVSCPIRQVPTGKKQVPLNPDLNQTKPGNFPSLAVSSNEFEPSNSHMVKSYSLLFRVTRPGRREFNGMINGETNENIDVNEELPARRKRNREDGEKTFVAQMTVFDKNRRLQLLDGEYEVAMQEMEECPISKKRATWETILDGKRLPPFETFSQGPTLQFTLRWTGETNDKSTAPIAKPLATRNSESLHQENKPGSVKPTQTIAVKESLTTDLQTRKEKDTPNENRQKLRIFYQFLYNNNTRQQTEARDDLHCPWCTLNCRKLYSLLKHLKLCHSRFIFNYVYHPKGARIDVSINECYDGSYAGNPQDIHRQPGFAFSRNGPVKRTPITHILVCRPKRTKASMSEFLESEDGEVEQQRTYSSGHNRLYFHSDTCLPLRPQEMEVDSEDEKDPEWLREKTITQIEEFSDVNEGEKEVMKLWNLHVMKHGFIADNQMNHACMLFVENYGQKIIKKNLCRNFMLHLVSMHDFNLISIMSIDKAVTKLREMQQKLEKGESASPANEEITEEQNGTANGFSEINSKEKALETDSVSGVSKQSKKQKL
Sequence of PRC2-EZH1 (WT EZH1) (Q09028 whole entry partner): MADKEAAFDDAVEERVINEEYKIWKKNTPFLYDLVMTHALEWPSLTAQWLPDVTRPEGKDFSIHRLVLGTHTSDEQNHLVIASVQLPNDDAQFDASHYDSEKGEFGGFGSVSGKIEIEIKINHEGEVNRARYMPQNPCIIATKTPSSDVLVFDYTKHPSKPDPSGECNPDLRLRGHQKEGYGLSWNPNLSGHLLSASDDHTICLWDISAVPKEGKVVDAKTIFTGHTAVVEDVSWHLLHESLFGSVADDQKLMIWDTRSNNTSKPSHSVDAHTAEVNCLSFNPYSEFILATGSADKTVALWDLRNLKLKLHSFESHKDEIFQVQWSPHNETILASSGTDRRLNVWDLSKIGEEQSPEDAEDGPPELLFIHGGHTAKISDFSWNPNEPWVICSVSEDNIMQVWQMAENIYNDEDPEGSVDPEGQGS
Sequence of PRC2-EZH1 (WT EZH1) (Q6ZN18 whole entry partner): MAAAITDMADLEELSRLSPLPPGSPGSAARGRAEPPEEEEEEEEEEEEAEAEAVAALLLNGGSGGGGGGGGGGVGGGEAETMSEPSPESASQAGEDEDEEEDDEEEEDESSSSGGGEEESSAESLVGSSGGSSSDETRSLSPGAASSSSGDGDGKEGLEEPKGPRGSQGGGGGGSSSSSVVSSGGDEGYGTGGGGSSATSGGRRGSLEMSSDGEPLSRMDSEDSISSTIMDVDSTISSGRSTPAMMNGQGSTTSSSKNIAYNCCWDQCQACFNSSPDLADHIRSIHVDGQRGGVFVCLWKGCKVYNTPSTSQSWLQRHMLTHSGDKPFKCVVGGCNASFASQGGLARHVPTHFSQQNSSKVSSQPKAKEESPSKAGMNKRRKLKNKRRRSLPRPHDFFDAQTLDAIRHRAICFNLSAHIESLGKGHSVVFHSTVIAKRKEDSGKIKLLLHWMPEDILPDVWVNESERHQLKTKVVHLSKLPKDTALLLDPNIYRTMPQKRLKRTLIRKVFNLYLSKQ

T1 sequence (Q15910 whole entry): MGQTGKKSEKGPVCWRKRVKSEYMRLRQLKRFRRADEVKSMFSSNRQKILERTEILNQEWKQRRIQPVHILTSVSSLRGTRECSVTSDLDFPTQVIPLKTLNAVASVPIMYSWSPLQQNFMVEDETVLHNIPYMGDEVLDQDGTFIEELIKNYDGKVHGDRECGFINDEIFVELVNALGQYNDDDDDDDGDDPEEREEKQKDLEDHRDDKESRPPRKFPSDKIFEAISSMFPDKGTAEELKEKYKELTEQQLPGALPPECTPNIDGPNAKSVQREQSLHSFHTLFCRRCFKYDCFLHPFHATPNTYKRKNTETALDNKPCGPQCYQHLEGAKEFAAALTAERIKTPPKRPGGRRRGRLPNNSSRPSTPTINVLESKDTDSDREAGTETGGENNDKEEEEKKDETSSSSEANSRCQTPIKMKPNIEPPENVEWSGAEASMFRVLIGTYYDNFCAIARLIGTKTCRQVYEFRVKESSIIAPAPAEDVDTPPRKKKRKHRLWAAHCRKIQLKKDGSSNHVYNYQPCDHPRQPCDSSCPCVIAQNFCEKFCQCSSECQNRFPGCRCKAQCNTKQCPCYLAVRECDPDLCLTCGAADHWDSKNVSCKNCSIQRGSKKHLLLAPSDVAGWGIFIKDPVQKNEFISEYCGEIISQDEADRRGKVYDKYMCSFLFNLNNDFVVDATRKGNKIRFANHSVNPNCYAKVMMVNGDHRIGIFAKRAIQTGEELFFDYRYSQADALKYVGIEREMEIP
T1 sequence (O75530 whole entry partner): as the sequence (O75530 whole entry partner) above
T1 sequence (Q15022 whole entry partner): as the sequence (Q15022 whole entry partner) above

| IC50 (PRC2-EZH2 (WT EZH2)) | IC50 [1] | IC50 (PRC2-EZH1 (WT EZH1)) | SMILES |
| --- | --- | --- | --- |
| 19 nM | 99 nM | 43 nM | Cc1cc(C)c(CNC(=O)c2cc(C3=CCN(C)CC3)c3c(c2C)OC(C)([C@H]2CC[C@H](N(C)C)CC2)O3)c(=O)[nH]1 (relative stereo) [Example 71, 2-[trans-4-(Dimethylamino)cyclohexyl]-N-[(4,6-dimethyl-2-oxo-1,2-dihydropyridin-3-yl)methyl]-2,4-dimethyl-7-(1-methyl-3,6-dihydro-2H-pyridin-4-yl)-1,3-benzodioxole-5-carboxamide] |
| 21 nM | 16 nM | 180 nM | Cc1cc(C)c(CNC(=O)c2cc(Cl)c3c(c2C)OC(C)(C2CC4(CC(N(C)C)C4)C2)O3)c(=O)[nH]1 (stereo not drawn) [Example 30, 7-Chloro-2-[2-(dimethylamino)spiro[3.3]heptan-6-yl]-N-[(4,6-dimethyl-2-oxo-1,2-dihydropyridin-3-yl)methyl]-2,4-dimethyl-1,3-benzodioxole-5-carboxamide] |
| 23 nM | 1.2 nM | 17 nM | CCc1cc(C)[nH]c(=O)c1CNC(=O)c1cc(Br)c2c(c1C)OC(C)([C@H]1CC[C@H](N(C)C)CC1)O2 (relative stereo) [Example 17, 7-Bromo-2-[trans-4-(dimethylamino)cyclohexyl]-N-[(4-ethyl-6-methyl-2-oxo-1,2-dihydropyridin-3-yl)methyl]-2,4-dimethyl-1,3-benzodioxole-5-carboxamide] |
| 17 nM | 2.8 nM | 23 nM | CCN(C)[C@H]1CC[C@H](C2(C)Oc3c(Br)cc(C(=O)NCc4c(C)cc(C)[nH]c4=O)c(C)c3O2)CC1 (relative stereo) [Example 20, 7-Bromo-N-[(4,6-dimethyl-2-oxo-1,2-dihydropyridin-3-yl)methyl]-2-[trans-4-[N-ethyl(N-methyl)amino]cyclohexyl]-2,4-dimethyl-1,3-benzodioxole-5-carboxamide] |
| 23 nM | 5.8 nM | 19 nM | CCCc1cc(C)[nH]c(=O)c1CNC(=O)c1cc(Br)c2c(c1C)OC(C)([C@H]1CC[C@H](N(C)C)CC1)O2 (relative stereo) [Example 18, 7-Bromo-2-[trans-4-(dimethylamino)cyclohexyl]-2,4-dimethyl-N-[(6-methyl-2-oxo-4-propyl-1,2-dihydropyridin-3-yl)methyl]-1,3-benzodioxole-5-carboxamide] |
| 9.4 nM | 16 nM | 68 nM | Cc1cc(C)c(CNC(=O)c2cc(Br)c3c(c2C)O[C@@](C)(CO[C@H]2CCN(C)C2)O3)c(=O)[nH]1 [Example 29, (2R)-7-Bromo-N-[(4,6-dimethyl-2-oxo-1,2-dihydropyridin-3-yl)methyl]-2,4-dimethyl-2-[[(3S)-1-methylpyrrolidin-3-yl]oxymethyl]-1,3-benzodioxole-5-carboxamide] |
| 8.7 nM | 1.8 nM | 5.7 nM | Cc1cc(C)c(CNC(=O)c2cc(-c3ccccc3)c3c(c2C)OC(C)([C@H]2CC[C@H](N(C)C)CC2)O3)c(=O)[nH]1 (relative stereo) [Example 59, 2-[trans-4-(Dimethylamino)cyclohexyl]-N-[(4,6-dimethyl-2-oxo-1,2-dihydropyridin-3-yl)methyl]-2,4-dimethyl-7-phenyl-1,3-benzodioxole-5-carboxamide] |
| 16 nM | 6 nM | 97 nM | Cc1cc(C)c(CNC(=O)c2cc(Br)c3c(c2C)O[C@@](C)(C2CCN(C)CC2)O3)c(=O)[nH]1 [Example 8, (2R)-7-Bromo-N-[(4,6-dimethyl-2-oxo-1,2-dihydropyridin-3-yl)methyl]-2,4-dimethyl-2-(1-methyl-4-piperidyl)-1,3-benzodioxole-5-carboxamide] |
| 14 nM | 3.7 nM | 7.3 nM | Cc1cc(C)c(CNC(=O)c2cc(C3=CCCCC3)c3c(c2C)OC(C)([C@H]2CC[C@H](N(C)C)CC2)O3)c(=O)[nH]1 (relative stereo) [Example 60, 7-(Cyclohexen-1-yl)-2-[trans-4-(dimethylamino)cyclohexyl]-N-[(4,6-dimethyl-2-oxo-1,2-dihydropyridin-3-yl)methyl]-2,4-dimethyl-1,3-benzodioxole-5-carboxamide] |
| 12 nM | 1.4 nM | 9.4 nM | COc1cc(C)[nH]c(=O)c1CNC(=O)c1cc(Br)c2c(c1C)OC(C)([C@H]1CC[C@H](N(C)C)CC1)O2 (relative stereo) [Example 16, 7-Bromo-2-[trans-4-(dimethylamino)cyclohexyl]-N-[(4-methoxy-6-methyl-2-oxo-1,2-dihydropyridin-3-yl)methyl]-2,4-dimethyl-1,3-benzodioxole-5-carboxamide] |
| 12 nM | 45 nM | 110 nM | Cc1cc(C)c(CNC(=O)c2cc(Br)c3c(c2C)OC(C)(CC2CCN(C)CC2)O3)c(=O)[nH]1 (stereo not drawn) [Example 25, 7-Bromo-N-[(4,6-dimethyl-2-oxo-1,2-dihydropyridin-3-yl)methyl]-2,4-dimethyl-2-[(1-methyl-4-piperidyl)methyl]-1,3-benzodioxole-5-carboxamide] |
| 18 nM | 1.6 nM | 29 nM | Cc1cc(C)c(CNC(=O)c2cc(C3CC3)c3c(c2C)OC(C)([C@H]2CC[C@H](N(C)C)CC2)O3)c(=O)[nH]1 (relative stereo) [Example 68, 7-Cyclopropyl-2-[trans-4-(dimethylamino)cyclohexyl]-N-[(4,6-dimethyl-2-oxo-1,2-dihydropyridin-3-yl)methyl]-2,4-dimethyl-1,3-benzodioxole-5-carboxamide] |
| 28 nM | 14 nM | 260 nM | Cc1cc(C)c(CNC(=O)c2cc(Cl)c3c(c2C)OC(C)([C@H]2CC[C@H](N(C)C=O)CC2)O3)c(=O)[nH]1 (relative stereo) [Example 33, 7-Chloro-N-[(4,6-dimethyl-2-oxo-1,2-dihydropyridin-3-yl)methyl]-2-[trans-4-[formyl(methyl)amino]cyclohexyl]-2,4-dimethyl-1,3-benzodioxole-5-carboxamide] |
| 14 nM | 2.2 nM | 40 nM | COc1cc(C)[nH]c(=O)c1CNC(=O)c1cc(Cl)c2c(c1C)OC(C)([C@@H]1CC[C@@H](N(C)C)CO1)O2 (stereo partly drawn) [Example 39, 7-Chloro-2-[(2S,5R)-5-(dimethylamino)tetrahydropyran-2-yl]-N-[(4-methoxy-6-methyl-2-oxo-1,2-dihydropyridin-3-yl)methyl]-2,4-dimethyl-1,3-benzodioxole-5-carboxamide] |
| 19 nM | 1.6 nM | 28 nM | CCc1cc(C)[nH]c(=O)c1CNC(=O)c1cc(Cl)c2c(c1C)OC(C)([C@H]1CC[C@H](N(C)C)CC1)O2 (relative stereo) [Example 37, 7-Chloro-2-[trans-4-(dimethylamino)cyclohexyl]-N-[(4-ethyl-6-methyl-2-oxo-1,2-dihydropyridin-3-yl)methyl]-2,4-dimethyl-1,3-benzodioxole-5-carboxamide] |
| 21 nM | 10 nM | 8 nM | CCN1CCN(c2ccc(-c3cc(C(=O)NCc4c(C)cc(C)[nH]c4=O)c(C)c4c3OC(C)([C@H]3CC[C@H](N(C)C)CC3)O4)cn2)CC1 (relative stereo) [Example 61, 2-[trans-4-(Dimethylamino)cyclohexyl]-N-[(4,6-dimethyl-2-oxo-1,2-dihydropyridin-3-yl)methyl]-7-[6-(4-ethylpiperazin-1-yl)-3-pyridyl]-2,4-dimethyl-1,3-benzodioxole-5-carboxamide] |
| 41 nM | 44 nM | 380 nM | Cc1cc(C)c(CNC(=O)c2cc(Br)c3c(c2C)OC(C)(CN2CCN(C)CC2)O3)c(=O)[nH]1 (stereo not drawn) [Example 43, 7-Bromo-N-[(4,6-dimethyl-2-oxo-1,2-dihydropyridin-3-yl)methyl]-2,4-dimethyl-2-[(4-methylpiperazin-1-yl)methyl]-1,3-benzodioxole-5-carboxamide] |
| 12 nM | 0.88 nM | 20 nM | CCc1cc(C(=O)NCc2c(C)cc(C)[nH]c2=O)c(C)c2c1OC(C)([C@H]1CC[C@H](N(C)C)CC1)O2 (relative stereo) [Example 76, 2-[trans-4-(Dimethylamino)cyclohexyl]-N-[(4,6-dimethyl-2-oxo-1,2-dihydropyridin-3-yl)methyl]-7-ethyl-2,4-dimethyl-1,3-benzodioxole-5-carboxamide] |
| 15 nM | 51 nM | 250 nM | CCN1CC2(CC(C3(C)Oc4c(Br)cc(C(=O)NCc5c(C)cc(C)[nH]c5=O)c(C)c4O3)C2)C1 (stereo not drawn) [Example 5, 7-Bromo-N-[(4,6-dimethyl-2-oxo-1,2-dihydropyridin-3-yl)methyl]-2-(2-ethyl-2-azaspiro[3.3]heptan-6-yl)-2,4-dimethyl-1,3-benzodioxole-5-carboxamide] |
| 30 nM | 26 nM | 660 nM | Cc1cc(C)c(CNC(=O)c2cc(Br)c3c(c2C)OC(C)(C24CC(N(C)C)(C2)C4)O3)c(=O)[nH]1 (stereo not drawn) [Example 3, 7-Bromo-2-[3-(dimethylamino)-1-bicyclo[1.1.1]pentanyl]-N-[(4,6-dimethyl-2-oxo-1,2-dihydropyridin-3-yl)methyl]-2,4-dimethyl-1,3-benzodioxole-5-carboxamide] |
| 18 nM | 9 nM | 110 nM | CCN1CCC([C@@]2(C)Oc3c(Cl)cc(C(=O)NCc4c(C)cc(C)[nH]c4=O)c(C)c3O2)CC1 [Example 31, (2R)-7-Chloro-N-[(4,6-dimethyl-2-oxo-1,2-dihydropyridin-3-yl)methyl]-2-(1-ethyl-4-piperidyl)-2,4-dimethyl-1,3-benzodioxole-5-carboxamide] |
